Results as given in patent US6506766B1 (Abbott Laboratories, priority 1998, dated 2003).
Read-outs that look alike come from different tables or passages of the source.

Columns and labels:
[1] = molecular target: T1, human progesterone receptor-A [PRA] isoform (Homo sapiens, UniProt P06401); test: Radioligand binding with human progesterone receptor cytosol ([3H]-progesterone competition)
T1 construct: host or cells: insect SF21 cells (baculovirus)
T1 sequence (P06401 1-769 isoform P06401-2): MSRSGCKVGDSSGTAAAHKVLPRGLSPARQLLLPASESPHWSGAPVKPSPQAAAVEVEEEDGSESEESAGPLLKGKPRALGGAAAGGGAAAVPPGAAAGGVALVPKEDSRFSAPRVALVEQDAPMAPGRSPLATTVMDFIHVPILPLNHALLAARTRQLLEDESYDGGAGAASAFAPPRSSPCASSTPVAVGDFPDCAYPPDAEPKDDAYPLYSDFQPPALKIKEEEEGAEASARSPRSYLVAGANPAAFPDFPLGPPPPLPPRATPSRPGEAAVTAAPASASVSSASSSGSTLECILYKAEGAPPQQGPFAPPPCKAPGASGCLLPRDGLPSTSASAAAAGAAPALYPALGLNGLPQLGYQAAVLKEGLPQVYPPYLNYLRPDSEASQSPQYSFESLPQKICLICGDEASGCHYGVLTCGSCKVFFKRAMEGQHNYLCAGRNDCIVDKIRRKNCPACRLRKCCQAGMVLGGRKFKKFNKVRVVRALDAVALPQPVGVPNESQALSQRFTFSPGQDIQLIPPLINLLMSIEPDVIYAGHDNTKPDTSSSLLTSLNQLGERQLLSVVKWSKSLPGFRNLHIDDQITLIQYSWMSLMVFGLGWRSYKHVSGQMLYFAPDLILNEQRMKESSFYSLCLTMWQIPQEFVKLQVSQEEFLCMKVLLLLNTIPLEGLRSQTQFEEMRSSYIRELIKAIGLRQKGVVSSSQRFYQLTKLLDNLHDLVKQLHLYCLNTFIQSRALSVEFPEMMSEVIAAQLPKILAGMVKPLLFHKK

[2] = molecular target: T2, human glucocorticoid receptor-α [GRX] isoform (Homo sapiens, UniProt P04150); test: Radioligand binding with human glucocorticoid receptor cytosol ([3H]-dexamethasone competition)
T2 construct: host or cells: insect SF21 cells (baculovirus)
T2 sequence (P04150 1-777): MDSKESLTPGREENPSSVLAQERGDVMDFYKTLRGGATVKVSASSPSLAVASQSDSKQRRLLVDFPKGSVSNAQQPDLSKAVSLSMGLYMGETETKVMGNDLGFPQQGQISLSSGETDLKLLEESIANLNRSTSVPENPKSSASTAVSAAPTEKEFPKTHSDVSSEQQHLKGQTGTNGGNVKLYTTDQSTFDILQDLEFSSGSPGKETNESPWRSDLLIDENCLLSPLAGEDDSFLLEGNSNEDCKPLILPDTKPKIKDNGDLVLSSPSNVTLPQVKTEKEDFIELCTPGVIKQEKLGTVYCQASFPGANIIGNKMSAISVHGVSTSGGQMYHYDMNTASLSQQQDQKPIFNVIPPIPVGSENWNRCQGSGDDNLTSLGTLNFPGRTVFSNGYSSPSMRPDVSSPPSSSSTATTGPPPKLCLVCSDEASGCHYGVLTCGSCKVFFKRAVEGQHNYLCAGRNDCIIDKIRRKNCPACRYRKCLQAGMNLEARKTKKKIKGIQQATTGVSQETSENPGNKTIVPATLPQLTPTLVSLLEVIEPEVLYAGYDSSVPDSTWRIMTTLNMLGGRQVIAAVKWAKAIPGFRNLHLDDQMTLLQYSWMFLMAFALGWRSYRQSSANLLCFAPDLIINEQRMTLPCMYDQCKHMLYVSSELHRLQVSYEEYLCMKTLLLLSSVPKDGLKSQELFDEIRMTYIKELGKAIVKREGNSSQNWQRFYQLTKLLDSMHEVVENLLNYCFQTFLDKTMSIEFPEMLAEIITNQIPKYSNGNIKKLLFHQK

[3] = PRA cytosol expressed in insect SF21 cells, [3H]Prog ~0.8 nM, 4° C. overnight, Ki by Cheng-Prusoff, KL ~4.5 nM, read-out: Ki (nM) PR
[4] = GRX cytosol expressed in insect SF21 cells, [3H]-Dex ~0.9 nM, 4° C. overnight, Ki by Cheng-Prusoff, KL ~[…], read-out: Ki (nM) GR

Ki [1, 3] [nM]	Ki [2, 4] [nM]	Compound	Ki ([1]; Ki (nM) PR) [nM]	Ki ([2]; Ki (nM) GR) [nM]
≥ 10000	5.2	COc1cccc2c1-c1ccc3c(c1C(c1cccc(OCSC)c1)O2)C(C)=CC(C)(C)N3 (centres unmarked) [Example 14, 2,5-Dihydro-10-methoxy-2,2,4-trimethyl-5-[[3-(methylthio)methoxy]phenyl]-1H-[1]benzopyrano[3,4-f]quinoline]		
		COc1cccc2c1-c1ccc3c(c1C(c1cccc(OC(=O)N(C)C)c1)O2)C(C)=CC(C)(C)N3 (centres unmarked) [Example 15, [3-(2,5-Dihydro-10-methoxy-2,2,4-trimethyl-1H-[1]benzopyrano[3,4-f]quinolin-5-yl)phenyl]dimethylcarbamate]	≥ 10000	2.5
≥ 10000	8	COc1cccc2c1-c1ccc3c(c1C(c1cc(C)cc(-c4ccco4)c1)O2)C(C)=CC(C)(C)N3 (centres unmarked) [Example 16, 5-[3-(2-Furanyl)-5-methylphenyl]-2,5-dihydro-10-methoxy-2,2,4-trimethyl-1H-[1]benzopyrano[3,4-f]quinoline]		
≥ 10000	39	COc1cccc2c1-c1ccc3c(c1C(c1cc(C)cc(N4CCOCC4)c1)O2)C(C)=CC(C)(C)N3 (centres unmarked) [Example 17, 2,5-Dihydro-10-methoxy-2,2,4-trimethyl-5-[3-methyl-5-(1-morpholinyl)phenyl]-1H-[1]benzopyrano[3,4-f]quinoline]		
4020	10.7	COc1cccc2c1-c1ccc3c(c1C(c1cccc(C(F)(F)F)c1)O2)C(C)=CC(C)(C)N3 (centres unmarked) [Example 21, 2,5-Dihydro-10-methoxy-2,2,4-trimethyl-5-[3-(trifluoromethyl)phenyl]-1H-[1]benzopyrano[3,4-f]quinoline]		
≥ 10000	6.5	COc1ccc(C2Oc3cccc(OC)c3-c3ccc4c(c32)C(C)=CC(C)(C)N4)cc1 (centres unmarked) [Example 22, 2,5-Dihydro-10-methoxy-5-(4-methoxyphenyl)-2,2,4-trimethyl-1H-[1]benzopyrano[3,4-f]quinoline]		
6150	8.2	COc1cccc2c1-c1ccc3c(c1C(c1cccc(Cl)c1)O2)C(C)=CC(C)(C)N3 (centres unmarked) [Example 23, 5-(3-Chlorophenyl)-2,5-dihydro-10-methoxy-2,2,4-trimethyl-1H-[1]benzopyrano[3,4-f]quinoline]		
14800	3.5	COc1cccc2c1-c1ccc3c(c1C(c1cccc(C)c1)O2)C(C)=CC(C)(C)N3 (centres unmarked) [Example 24, 2,5-Dihydro-10-methoxy-2,2,4-trimethyl-5-(3-methylphenyl)-1H-[1]benzopyrano[3,4-f]quinoline]		
3270	4.7	COc1cccc2c1-c1ccc3c(c1C(c1ccc(Cl)cc1)O2)C(C)=CC(C)(C)N3 (centres unmarked) [Example 28, 5-(4-Chlorophenyl)-2,5-dihydro-10-methoxy-2,2,4-trimethyl-1H-[1]benzopyrano[3,4-f]quinoline]		
7760	7.7	COc1cccc2c1-c1ccc3c(c1C(c1ccc(C)c(C)c1)O2)C(C)=CC(C)(C)N3 (centres unmarked) [Example 29, 5-(3,4-Dimethylphenyl)-2,5-dihydro-10-methoxy-2,2,4-trimethy-1H-[1]benzopyrano[3,4-f]quinoline]		
7920	13	COc1cccc2c1-c1ccc3c(c1C(c1ccc(F)cc1)O2)C(C)=CC(C)(C)N3 (centres unmarked) [Example 30, 5-(4-Fluorophenyl)-2,5-dihydro-10-methoxy-2,2,4-trimethyl-1H-[1]benzopyrano[3,4-f]quinoline]		
≥ 10000	12.2	COc1cccc2c1-c1ccc3c(c1C(c1cc(C(F)(F)F)cc(C(F)(F)F)c1)O2)C(C)=CC(C)(C)N3 (centres unmarked) [Example 31, 5-[3,5-bis(Trifluoromethyl)phenyl]-2,5-dihydro-10-methoxy-2,2,4-trimethyl-1H-[1]benzopyrano[3,4-f]quinoline]		
4710	4	COc1cccc2c1-c1ccc3c(c1C(c1cc(F)cc(F)c1)O2)C(C)=CC(C)(C)N3 (centres unmarked) [Example 34, 5-(3,5-Difluorophenyl)-2,5-dihydro-10-methoxy-2,2,4-trimethyl-1H-[1]benzopyrano[3,4-f]quinoline]		
≥ 10000	260	COc1cccc2c1-c1ccc3c(c1C(N(C)c1ccccc1)O2)C(C)=CC(C)(C)N3 (centres unmarked) [Example 35, 2,5-Dihydro-10-methoxy-2,2,4,N-tetramethyl-N-phenyl-1H-[1]benzopyrano[3,4-f]quinolin-5-amine]		
≥ 10000	207	COc1cccc2c1-c1ccc3c(c1CO2)C(C)=CC(C)(C)N3 [Example 38, 2,5-Dihydro-10-methoxy-2,2,4-trimethyl-1H-[1]benzopyrano[3,4-f]quinoline]		
≥ 10000	31	COc1cccc2c1-c1ccc3c(c1C(c1ccc(N(C)C)cc1)O2)C(C)=CC(C)(C)N3 (centres unmarked) [Example 39, 4-(2,5-Dihydro-10-methoxy-2,2,4-trimethyl-1H-[1]benzopyrano[3,4-f]quinolin-5-yl)-N,N-dimethylbenzenamine]		
18100	18	COc1ccc(C2Oc3cccc(OC)c3-c3ccc4c(c32)C(C)=CC(C)(C)N4)s1 (centres unmarked) [Example 40, 2,5-Dihydro-10-methoxy-2,2,4-trimethyl-5-(5-methoxy-2-thienyl)1H-[1]benzopyrano[3,4-f]quinoline]		
3300	9.5	CCCc1ccc(C2Oc3cccc(OC)c3-c3ccc4c(c32)C(C)=CC(C)(C)N4)s1 (centres unmarked) [Example 41, 2,5-Dihydro-10-methoxy-2,2,4-trimethyl-5-(5-propyl-2-thienyl)-1H-[1]benzopyrano[3,4-f]quinoline]		
≥ 10000	99	COc1cccc2c1-c1ccc3c(c1C(c1ccc(N4CCOCC4)cc1)O2)C(C)=CC(C)(C)N3 (centres unmarked) [Example 42, 2,5-Dihydro-10-methoxy-2,2,4-trimethyl-5-[4-(1-morpholinyl)phenyl]1H-[1]benzopyrano[3,4-f]quinoline]		
≥ 10000	72	COc1cccc2c1-c1ccc3c(c1C(CC(=O)C(C)(C)C)O2)C(C)=CC(C)(C)N3 (centres unmarked) [Example 43, 1-(2,5-Dihydro-10-methoxy-2,2,4-trimethyl-1H-[1]benzopyrano[3,4-f]quinolin-5yl)-3,3-dimethyl-2-butanone]		
19500	190	COc1cccc2c1-c1ccc3c(c1C(C#N)O2)C(C)=CC(C)(C)N3 (centres unmarked) [Example 44, 2,5-Dihydro-10-methoxy-2,2,4-trimethyl-1H-[1]benzopyrano[3,4-f]quinoline-5-carbonitrile]		
3440	2.7	COC(=O)CC1Oc2cccc(OC)c2-c2ccc3c(c21)C(C)=CC(C)(C)N3 (centres unmarked) [Example 46, Methyl 2,5-Dihydro-10-methoxy-2,2,4-trimethyl-1H-[1]benzopyrano[3,4-f]quinoline-5-acetate]		
≥ 10000	174	COc1cccc2c1-c1ccc3c(c1C(CC(=O)c1ccccc1)O2)C(C)=CC(C)(C)N3 (centres unmarked) [Example 47, 2-(2,5-Dihydro-10-methoxy-2,2,4-trimethyl-1H-[1]benzopyrano[3,4-f]quinolin-5-yl)-1-phenylethanone]		
2770	5.8	C=C(CCl)CC1Oc2cccc(OC)c2-c2ccc3c(c21)C(C)=CC(C)(C)N3 (centres unmarked) [Example 48, 5-[2-(Chloromethyl)-2-propenyl]-2,5-dihydro-10-methoxy-2,2,4-trimethyl-1H-[1]benzopyrano[3,4-f]quinoline]		

Compound	Ki [1, 3] [nM]	Ki [2, 4] [nM]	Ki ([1]; Ki (nM) PR) [nM]	Ki ([2]; Ki (nM) GR) [nM]
COc1cccc2c1-c1ccc3c(c1C(c1cc(C)cc(C)c1)O2)C(C)=CC(C)(C)N3 (centres unmarked) [Example 27, 5-(3,5-Dimethylphenyl)-2,5-dihydro-10-methoxy-2,2,4-trimethyl-1H-[1]benzopyrano[3,4-f]quinoline]	3580			5.2
